This is an account of results in publication PMC9612231, “Antileishmanial Anthracene Endoperoxides: Efficacy In Vitro, Mechanisms and Structure-Activity Relationships” (Molecules, 2022).

In one assay the test system is J774 macrophages. The experiment in a line: Resazurin viability assay for J774 macrophages. It is filed as cell-based, murine. Particulars: Mus musculus, J774, 48 h, read-out: J774 IC50, resazurin viability, endpoint 48 h, 10^5 J774 cells/mL, mean ± SD of 4–8 experiments. Here is the method: (§1) The influence of AcEP and their analogs (Ac) on the viability of cells was tested in Leishmania tarentolae promastigotes (LtP) and J774 macrophages (Table 2). Based on the changes of viability of the respective cell lines at different compound concentrations, IC50 values were calculated. In Table 2, the IC50 values in both cell lines were compared for the individual compounds. From the ratio of IC50 values in J774 macrophages to IC50 values in LtP, an in vitro selectivity was calculated.
The murine macrophage cell line J774A.1 (ATCC, TIB-67™, Wesel, Germany) was cultivated up to passage 30 in DMEM (high glucose, 3.7 g/L NaHCO3, pH 7.4) with 25,000 IU/L penicillin, 25 mg/L streptomycin, and 10% FCS (heat-inactivated) in 50 mL TubeSpin bioreactors. J774 cells were incubated at 37 °C and 5% CO2 on a roller culture apparatus (5 rpm) in a Heraeus Cytoperm 8080 incubator (Thermo Electron Corp., Vienna, Austria). To determine the cell count, the cell suspension was re-suspended and diluted 1:2 with phosphate-buffered saline (PBS): 137 mM NaCl, 1.4 mM KH2PO4, 4.3 mM Na2HPO4, and 2.7 mM KCl, pH 7.4. After fixation of the cells by mixing the cell suspension 1:1 with a formaldehyde solution (2%, v/v), aliquots of the resulting suspension were transferred into a standard Neubauer chamber (VWR, Austria) and counted manually using a light microscope (Motic BA310, Vienna, Austria) at a magnification of 40 times. J774 cells were passaged twice a week in a ratio of 1:10.
DMEM containing 25,000 U/L penicillin, 25 mg/L streptomycin, 10% FCS, and 1 × 10^5 J774/mL was prepared. This mixture (200 µL) was distributed in cell culture-treated 96-well plates, except the control wells which contained only DMEM. The cells were incubated for 24 h at 37 °C and 5% CO2 to allow attachment. Afterwards the medium and non-adherent cells were removed by washing with PBS, and then, 200 µL DMEM was added to attached cells. Compounds dissolved in DMSO were added in starting concentrations of 25 µM (Pen) or 200 µM (AcEP/Ac), and then, serial dilutions were carried out resulting in the same concentration steps as listed for LtP. For each compound concentration triplicates on each plate were performed. […], 50 µL of resazurin solution (final concentration 20 µM) was added, and after 4 h of incubation, the fluorescence was measured at 560 nm excitation and 590 nm emission using a plate reader (Perkin Elmer EnSpire, Rodgau, Germany). All tests were repeated at least on four different weeks of cultivation.
(§2) Calculations were carried out using Microsoft Excel 2016 (Microsoft). The graphs were created using Origin 6.1 (OriginLab Corporation, Northampton, MA, USA). For all groups of experimental data, mean and standard deviation (SD) were calculated. Statistically significant differences between groups of sample data were identified by unpaired two-tailed Student’s t-test. Differences on the level of p < 0.05 were considered significant. The number of replicates is indicated at the respective figures/tables. The half-maximal inhibitory concentrations (IC50) were determined from non-linear concentration-response curves using a four-parameter logistic model and expressed as the mean ± SD.

Assay [1] has as its system Leishmania tarentolae promastigotes (LtP). The experiment in a line: Resazurin viability assay for LtP. It is filed as cell-based. The conditions noted are these: Leishmania tarentolae, 48 h, read-out: LtP IC50. Here is the method: as §1
LtP (strain P10 from Jena Bioscience, Jena, Germany) were cultivated according to manufacturer instructions up to passage 50 in brain heart infusion medium (37 g/L, pH 7.4) and supplemented with 5 mg/L hemin and 25,000 IU/L penicillin and 25 mg/L streptomycin in 50 mL TubeSpin bioreactors (TPP, Trasadingen. Switzerland). LtP were grown at 27 °C in an incubator (Ehret, Emmendingen, Germany) and agitated at a frequency of 0.05 s^−1. […] For experiments, LtP were used one day after passage. The cell number was calculated by measuring the optical density (OD) of the culture at 600 nm with a U-1100 photometer (Hitachi Ltd., Tokyo, Japan) and applying the formula × 10^6 cells/mL = OD600nm × 0.969 × 124 × dilution factor [53].
Assay medium of YEM (20.7 g/L yeast extract powder, 1.2 g/L K2HPO4, 0.2 g/L KH2PO4, 2.9 g/L glucose, pH 7.4) and PBS (1:1, v/v), 25,000 U/L penicillin, 25 mg/L streptomycin, and 7.7 µM hemin was prepared. Aliquots of 200 µL of this medium and 2 × 10^6 LtP/mL (where required) were distributed in non-treated cell culture 96-well plates. Compounds (dissolved in DMSO) were added with starting concentrations of 25 µM (Pen) or 200 µM (AcEP/Ac), and then, serial dilutions were carried out resulting in a set of concentrations (25, 5, 1, 0.2, 0.04, and 0.008 µM) or (200, 40, 8, 1.6, 0.32, and 0.064 µM). For each compound concentration, at least triplicates on each plate were performed. After incubation of the plates at 27 °C for 48 h, 50 µL of resazurin solution (final concentration in wells 20 µM) was added to each well and after 4 h of incubation, the fluorescence was measured at 560 nm excitation and 590 nm emission using a plate reader (Perkin Elmer EnSpire, Rodgau, Germany) (adapted from). Combination assays for viability in the presence of PIH and NAC were performed the same way. […] All tests were repeated at least on four different weeks of cultivation.
as §2
For orientation: Resazurin is reduced to fluorescent resorufin, in cell work by metabolically active cells.

Assay [2] has as its system LtP, axenic Leishmania tarentolae amastigotes and Leishmania donovani promastigotes. Also on record: method as in PMID 29996524. Particulars: read-out: IC50 in viability tests; cited from earlier work.
A further assay relates to LtP. The experiment in a line: Superoxide radical formation in LtP by the EPR/CMH method. It is filed as cell-based, Leishmania tarentolae. The conditions noted are these: antimycin A 20 µM, 20 min at 25 °C. From the text:
Since mitochondrial inhibition can be triggered by secondary damage in the respective cells, for example, by superoxide radicals, we studied the formation of superoxide radicals in LtP by the EPR/hydroxyl-3-methoxycarbonyl-2,2,5,5-tetramethylpyrrolidine hydrochloride (CMH) method (Figure 10). […] In the presence of antimycin A (AA, an inhibitor of mitochondrial complex III), the superoxide radical formation in LtP is increased by more than 150% (Figure 11).
An aliquot of the LtP cell culture equivalent to 5 × 10^8 LtP was transferred into a 1.5 mL Eppendorf tube and was centrifuged (Hettich Universal 16, 20 °C, 2000× g, 10 min). After removal of the supernatant, the cell pellet was re-suspended in 1 mL PBS and centrifuged again and the supernatant discarded. The cell pellet was re-suspended in 1 mL of PBS with 15 mM glucose (PBS-gluc), giving a final cell density of 5 × 10^8 LtP/mL. AcEP/Ac compounds were added (100 µM final concentration) to aliquots of 50 µL of this cell suspension in 1.5 mL Eppendorf tubes and incubated for 20 min at 25 °C. Then, DFO (100 μM final concentration), DTPA (25 μM final concentration), and detection agent CMH (400 µM final concentration) were added to the aliquots before measurement. Samples containing only buffer (PBS-gluc) or only LtP (in PBS-gluc) were used as negative controls, while samples containing 20 μM AA were used as positive control. An aliquot of 17 µL suspension was aspirated into a PTFE tube (ø 0.7 mm). The tube was folded into a quartz tube (ø 4 mm outer diameter) and then transferred to the MD5 resonator of the EPR spectrometer. The measurement was started using following parameters: microwave frequency 9.682 GHz; microwave power 20 mW, modulation frequency 100 kHz; modulation amplitude 1 G; time constant 0.82 s; center field 3448 G; sweep width 100 G; scan time 84 s; attenuation 70 dB; separate scans 5. Based on a calibration curve with carboxy proxyl (CP^●) changes of the peak-to-peak intensity of CM^● spectra were converted to CMH oxidation rates (superoxide radical generation).

For `c1ccc2cc3ccccc3cc2c1` [Ac, anthracene], the IC50 in the assay with J774 macrophages is above 200 µM; in assay [1] it was above 200 µM; in assay [2], above 100 µM.
With `O=C1c2ccccc2C(=O)c2ccccc21` [anthraquinone, reference compound], the IC50 in assay [2] is above 100 µM.
Turning to `CCCCCC[C@H]1C(=O)O[C@H](C)[C@H](NC(=O)c2cccc(NC=O)c2O)C(=O)O[C@@H](C)[C@@H]1OC(=O)CC(C)C` [antimycin A, reference compound], the “Increase of superoxide radical formation in LtP” value in the assay on LtP is “more than 150%”.
